Patent US20080051464A1, “Protein phosphatase inhibitors” (The Cleveland Clinic Foundation, priority 2006, published 2008)

Experiments:
recombinant SHP-1 = target: T1, recombinant SHP-1 (Homo sapiens, UniProt P29350); test: rapid in vitro SHP-1 PTPase assay (DIFMUP substrate); type: biochemical; conditions: 1 μg/well; FIG. 12A
T1 construct: Recombinant protein of SHP-1 PTPase catalytic domain was described
T1 sequence (P29350 244-515 limits assumed): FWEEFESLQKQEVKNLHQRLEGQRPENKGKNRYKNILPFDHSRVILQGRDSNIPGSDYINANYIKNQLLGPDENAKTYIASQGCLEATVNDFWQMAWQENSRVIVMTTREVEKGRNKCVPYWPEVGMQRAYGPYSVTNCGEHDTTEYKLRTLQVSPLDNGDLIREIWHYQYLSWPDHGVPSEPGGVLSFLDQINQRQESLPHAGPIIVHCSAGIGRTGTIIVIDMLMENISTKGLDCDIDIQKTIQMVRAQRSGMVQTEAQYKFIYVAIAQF
Description: Recombinant protein of SHP-1 PTPase catalytic domain was described and stored in Tris buffer (25 mM Tris, pH7.5, 1 mM EDTA, 2 μM 2-ME, 25% glycerol) at −80° C. Fluorescence substrate DIFMUP (6,8-difluoro-4 methylumbelliferyl phosphate) was purchased (Molecular Probes). SSG was reported previously (21-23) and stored at 4° C. in darkness prior to use. Human and mouse IFNγ ELISPOT Kit (R & D System), CD4^+ Cell Intracellular IFNγ Detection Kit (BD Bioscience) and CD8^+ Cell Intracellular IFNγ Detection Kit (BD Bioscience) were purchased from commercial sources. Human Jurkat T cell line (26) and murine B16 melanoma cell line (ATCC) were maintained in […] culture medium supplemented with 10% fetal calf serum (FCS). Antibodies against pLck-pY394 (Cell Signaling), pLck-pY505 (Cell Signaling), pZap70 (pY319, BD Biosciences), pSlp76 (pY128, BD Biosciences) and pLat (pY226, BD Biosciences) were purchased from commercial sources.
(§1) A rapid SHP-1 PTPase assay was developed for screening the compounds in a commercial library of 34,000 drug-like small chemicals (Chembridge, Mass.). Briefly, compounds of the library (1 μg/well in 0.21 DMSO) were placed in 96-well plates (Falcon, 353072) and mixed with recombinant SHP-1 protein (0.1 μg/well) in 90 μl of HEPES buffer (50 mM HEPS, pH 7.5, 150 mM NaCl, 1 mM EDTA, 0.2 mM DTT and 0.1 mg/ml BSA). The plates were incubated at room temperature for 10 minutes prior to the addition of fluorescence substrate DIFMUP (40 μM stock in HEPES buffer, 10 μl/well) to initiate PTPase reaction. Upon completion of PTPase reaction at room temperature for 1 hr in darkness, fluorescence signal of individual wells were recorded using a Vector^2 Multilabel Counter (Vector, CA). They were compared to that of control SHP-1 PTPase reaction (˜10,000 units of fluorescence signal) in the absence of any compound (100%) for calculating relative SHP-1 inhibition induced by the compounds after subtracting the background signal (˜500 units of fluorescence signal) of the substrate.
as §1, with “To evaluate their” for “A rapid”, “inhibitory activity,” for “PTPase assay was developed for screening”, “analogs” for “compounds in a commercial library of 34,000 drug-like small chemicals (Chembridge, Mass.). Briefly, compounds of the library”, “0.2 μl” for “0.21”, “aliquot individually to” for “placed in”, “(500” for “(˜500”

[1] = system: IFNγ+ cells in mouse splenocytes; test: induction of IFNγ+ cells in mouse splenocytes in vitro (ELISPOT); type: cell-based
Description: The splenocytes were cultured in RPMI 1640 medium supplemented with 10% FCS in the absence or presence of designated agents for 16 hrs in flat-bottom 96-well plates coated with a monoclonal antibody specific for mouse IFNγ (mouse IFNγ ELISPOT Kit, R & D System). The plates were then processed for in situ detection of IFNγ+ cells by ELISA following the manufacturer's procedure. Scanning and counting of IFNγ+ cells in the plates were accomplished using an automatic ELISPOT reader with Immunospot2 software (Cellular Technology Ltd). Mouse splenocytes were also untreated or treated with agents for 16 hrs in culture dishes and then stained with appropriate isotype control antibodies or FICT-labeled anti-CD3 monoclonal antibody (BD) plus PE-labeled monoclonal antibody (BD) for intracellular IFNγ following established procedures. The stained samples were washed 3 times, re-suspended in 200 μl of 1% para-formaldehyde solution and analyzed (20,000 cells/sample) using a BD FACS Caliburs cytometer and WinList software.
The splenocytes were cultured in RPMI 1640 medium supplemented with 10% FCS in the absence or presence of designated agents for 16 hrs in flat-bottom 96-well plates coated with a monoclonal antibody specific for mouse IFNγ (mouse IFNγ ELISPOT Kit, R & D System). The plates were then processed for in situ detection of IFNγ+ cells by ELISA following the manufacturer's procedure. Scanning and counting of IFNγ+ cells in the plates were accomplished using an automatic ELISPOT reader with Immunospot2 software (Cellular Technology Ltd).

B16 melanoma tumors = test: B16 melanoma tumor growth in C57BL/6J mice; type: in vivo
Description: Tumor volume (n=5) was measured during the study period and calculated using the formula for a prolate spheroid. Student's t test was used for assessing the significance of tumor volume differences among differential treatment groups. Mouse viability (daily) and body weights (weekly) were also recorded during the study period. Major internal organs of the mice were inspected visually upon their termination at the end of the experiment.
To assess anti-tumor activity, C57BL/6J mice (˜8-week old, female, Taconic Farms, Germantown, N.Y.) were inoculated (s.c.) at the flanks with B16 melanoma cells (4×10^4 cells/site). […] Tumor volume (n=5) was measured during the study period and calculated using the formula for a prolate spheroid. Student's t test was used for assessing the significance of tumor volume differences among differential treatment groups. Mouse viability (daily) and body weights (weekly) were also recorded during the study period. Major internal organs of the mice were inspected visually upon their termination at the end of the experiment.

B16 melanoma cells = test: B16 melanoma cell growth in culture (MTT assay); type: cell-based, mouse; conditions: 6 days (FIG. 13C)
Text: L5, L6 and L6 analogs (Chembridge), mouse IFNγ ELISPOT Kit (R & D System) and antibody against pLck-pY394 or pERK1/2 (Cell Signaling) were purchased from commercial sources. Human Jurkat T cell line and murine B16 melanoma cell line (ATCC) and other cancer cell lines were maintained in […] culture medium supplemented with 10% fetal calf serum (FCS). The effects of chemical compounds on cancer cell growth in culture were quantified by MTT assays following our established procedures.

[2] = system: CD3+ and CD3− IFNγ+ splenocytes; test: spleno-IFNγ+ T cells in B16 tumor mice (flow cytometry); type: in vivo, mouse; conditions: 1 mg/kg oral, day 22
Description: Splenocytes from mice untreated or treated with L5a2 were stained with appropriate isotype control antibodies or FICT-labeled anti-CD3 monoclonal antibody (BD) plus PE-labeled monoclonal antibody (BD) for intracellular IFNγ following established procedures. The stained samples were washed 3 times, re-suspended in 200 μl of 1% para-formaldehyde solution and analyzed (20,000 cells/sample) using a BD FACS Caliburs cytometer and FlowJoe software.
To gain further insights into the mechanism of action in L5a2 in vivo, spleens were harvested from the B16 tumor mice in the control and the L5a2-treated groups (FIG. 13A) on day 22 to assess whether L5a2 induced IFNγ+ cells in the tumor-bearing mice. It was also determined whether the induced-IFNγ+ cells were of CD3+ T lymphocytes, which were activated TH1 critical for anti-tumor immunity. Splenocytes were prepared and co-stained for intracellular IFNγ and the T cell surface marker CD3 for quantification of IFNγ+T cells by flow cytometry.

[3] = system: SHP-1 substrate pLck-pY394 in Jurkat T cells; test: induction of pLck-pY394 in Jurkat cells (SDS-PAGE/Western blotting); type: cell-based, human
Description: (§2) Jurkat cells in culture medium (3×10^6 cells/ml, 1 ml/tube) were treated with agents for designated times at room temperature. After brief centrifuging in a microfuge (4,000 rpm, 2 min), the cell pellet was lysed on ice for 30 min in 100 μl of cold lysis buffer (1% NP40, 50 mM Tris, pH 7.4, 150 mM NaCl, 20 mM NaF, 0.2 mM Na3VO4 and 1 mM Na3MO4) containing a cocktail of proteinase inhibitors (Sigma, 1 tablet/10 ml). The lysates were cleared by centrifuging (14,000 rpm, 10 min) in a microfuge at 4° C. to remove insoluble parts, mixed with equal volume of 2×SDS-PAGE sample buffer, boiled for 5 min and analyzed (˜3×10^5 cells/well) by SDS-PAGE/Western blotting. Relative intensities of phosphotyrosine bands were quantified through densitometry analysis.
as §2, with “blotting as described previously (23, 24).” for “blotting.”
as §2, with “blotting as described previously (17, 18).” for “blotting.”

MKPs = test: induction of MKPs substrates in Jurkat cells (Western blotting); type: cell-based, human
Description: FIG. 22 illustrates selective induction of MKPs substrates by L6 and analogs in Jurkat human leukemic cells. Jurkat cells were treated with the compounds for 30 min in culture prior to quantification of MKPs substrates by SDS-PAGE/Western blotting.

Jurkat cells = test: Jurkat cell apoptosis (Annexin V / 7-AAD, FACS); type: cell-based, human; conditions: 16 hrs (FIG. 23)
Description: FIG. 23 illustrates jurkat cells were treated with L6 and analogs in culture for 16 hrs. Cells were then stained for apoptotic marker Annexin V and cell death marker 7-AAD prior to FACS analysis.

[4] = system: HT-29 human colon cancer cells; test: cytotoxicity of 5FU against HT-29 cells with L6 or analogs (MTT assay); type: cell-based; conditions: 5FU 2 μm, 3 days, then 4 days culture (FIG. 24)
Description: FIG. 24 illustrates HT-29 cells were treated with L6 or the analogs in the absence or presence of 5FU (2 μm) for 3 days. After washing, the cells were cultured for 4 days prior to quantification of viable cells by MTT assays.

SHP-1 and SHP-2 = test: SSG inhibition of recombinant and intracellular SHPs (applicant's earlier studies); conditions: clinically achievable levels

O=C1C=C(c2ccccc2)C(=O)c2ccccc21 [L5a3]
inhibition of phosphatase activity of recombinant SHP-1 (recombinant SHP-1): ~80%

O=C1C=CC(=O)C(c2cccc(Cl)c2)=C1 [L5a2]
inhibition of phosphatase activity of recombinant SHP-1 (recombinant SHP-1): completely or almost completely inhibited | immune cell activation (increase) ([1]; FIG. 11): ~20 fold | growth inhibition of B16 tumors vs control (B16 melanoma tumors; 1 mg/kg body weight daily, Monday-Friday/week, oral gavage): ~75% | survival of treated mice (B16 melanoma tumors; 1 mg/kg daily, oral gavage): survived till the end of the study | inhibition of B16 melanoma cells in culture (B16 melanoma cells): failed to inhibit B16 melanoma cells in culture | increase of CD3+ IFNγ+ cells [2]: ~4.5 fold | increase of CD3− IFNγ+ cells [2]: 1.3 fold

COc1ccc(C2=CC(=O)C=CC2=O)cc1 [L5a5]
inhibition of phosphatase activity of recombinant SHP-1 (recombinant SHP-1): completely or almost completely inhibited

O=C1C=CC(=O)C(c2ccc(Cl)cc2Cl)=C1 [L5a1]
inhibition of phosphatase activity of recombinant SHP-1 (recombinant SHP-1): completely or almost completely inhibited | effectiveness in inducing pLck-pY394 relative to L5 ([3]; Jurkat cells, 10 min (FIG. 10)): ~50%

CCOc1ccc(C2=CC(=O)C=CC2=O)cc1 [L5a4]
inhibition of phosphatase activity of recombinant SHP-1 (recombinant SHP-1): completely or almost completely inhibited

O=c1cc(Cl)sn1Cc1ccccc1 [L6a1]
MKP predominantly targeted (as indicated by effects on the substrates) (MKPs): inhibited HVH3 | differential effects on MKP substrates (pERK1/2, p38, pJNK) (MKPs; 30 min (FIG. 22), L6 at 1-100 ng/ml): lack of activity to induce pJNK or p-p39 | Jurkat cell apoptosis (Jurkat cells): failed to induce apoptosis | augmentation of 5FU cytotoxicity against HT-29 cells [4]: not

O.O.O.O.O.O.O.O.O.O=C([O-])[C@@H]1[O][Sb]2([O-])([O][Sb]34([OH])[O][C@H]([C@H](O)CO)[C@H]([O]3)[C@H](C(=O)[O-])[O]4)[O][C@H]([C@H](O)CO)[C@@H]1[O]2.[Na+].[Na+].[Na+] [SSG, Sodium Stibogluconate, reference compound]
pLck-pY394 induction ([3]; lower (1 μg/ml) or higher (100 μg/ml) doses): failed | level at which recombinant and intracellular SHP-1 and SHP-2 are inhibited (SHP-1 and SHP-2): 10 µg/mL

O=C1C=C(c2ccccc2Cl)CC(=O)C1 [L5a10]
inhibition of phosphatase activity of recombinant SHP-1 (recombinant SHP-1): ~5% | effect on pLck-pY394 levels ([3]; Jurkat cells, 10 min (FIG. 10)): failed to induce pLck-pY394 | induction of spleno-IFNγ+ cells (average) ([1]; doses from 1-30 μg/ml): ~2 folds | inhibition of B16 melanoma tumors in mice (B16 melanoma tumors; preliminary experiment): failed to inhibit B16 melanoma tumors
